Data reported in patent publication US11673890B2, “N1-pyrazolospiroketone acetyl-CoA carboxylase inhibitors” (Pfizer Inc., priority 2010, dated 2023).

Key:
[1] = target: T1, recombinant human ACC1 (rhACC1) (Homo sapiens, UniProt Q13085, DEL44-44); assay: recombinant hACC1 Transcreener assay (ADP detection FP); assay type: biochemical; conditions: recombinant hACC1 Transcreener assay, 50 μM ATP, minimum of n=3; read-out: hACC1
T1 construct: infected with recombinant baculovirus containing full length human ACC1 cDNA; made in house; host or cells: SF9 insect cells (baculovirus)
Description: For example direct inhibition of ACC activity, for the compound of Formula (1) was determined using preparations of recombinant human ACC1 (rhACC1) and recombinant human ACC2 (rhACC2).
[1] Preparation of rhACC1. Two liters of SF9 cells, infected with recombinant baculovirus containing full length human ACC1 cDNA, were suspended in ice-cold lysis buffer (25 mM Tris, pH 7.5; 150 mM NaCl; 10% glycerol; 5 mM imidazole (EMD Bioscience; Gibbstown, N.J.); 2 mM TCEP (BioVectra; Charlottetown, Canada); Benzonase nuclease (10000 U/100 g cell paste; Novagen; Madison, Wis.); EDTA-free protease inhibitor cocktail (1 tab/50 mL; Roche Diagnostics; Mannheim, Germany). Cells were lysed by 3 cycles of freeze-thaw and centrifuged at 40,000×g for 40 minutes (4° C.). Supernatant was directly loaded onto a HisTrap FF crude column (GE Healthcare; Piscataway, N.J.) and eluted with an imidazole gradient up to 0.5 M over 20 column volumes (CV). ACC1-containing fractions were pooled and diluted 1:5 with 25 mM Tris, pH 7.5, 2 mM TCEP, 10% glycerol and direct loaded onto a CaptoQ (GE Healthcare) column and eluted with an NaCl gradient up to 1 M over 20 CV's. Phosphate groups were removed from purified ACC1 by incubation with lambda phosphatase (100 U/10 μM target protein; New England Biolabs; Beverly, Mass.) for 14 hours at 4° C.; okadaic acid was added (1 μM final concentration; Roche Diagnostics) to inhibit the phosphatase. Purified ACC1 was exchanged into 25 mM Tris, pH 7.5, 2 mM TCEP, 10% glycerol, 0.5 M NaCl by 6 hour dialysis at 4° C. Aliquots were prepared and frozen at −80° C.
[2] […] The final conditions for the assay were 50 mM HEPES, pH 7.2, 10 mM MgCl2, 7.5 mM tripotassium citrate, 2 mM DTT, 0.1 mg/mL BSA, 30 μM acetyl-CoA, 50 μM ATP, and 10 mM KHCO3. Typically, a 10 μl reaction was run for 120 min at 25° C., and 10 μl of Transcreener stop and detect buffer was added and the combination incubated at room temp for an additional 1 hour.
All of the examples in both assays were run with a minimum of n=3.

[2] = target: T2, recombinant human ACC2 (rhACC2) (Homo sapiens, UniProt O00763, V2141I); assay: recombinant hACC2 Transcreener assay (ADP detection FP); assay type: biochemical; conditions: 50 μM ATP, minimum of n=3
T2 construct: a full length Cytomax clone of ACC2 was purchased from Cambridge Bioscience Limited; made in house; host or cells: CHO cells (tetracycline-inducible, pcDNA5 FRT TO-TOPO)
Description: For example direct inhibition of ACC activity, for the compound of Formula (1) was determined using preparations of recombinant human ACC1 (rhACC1) and recombinant human ACC2 (rhACC2). Representative sequences of the recombinant human ACC1 and ACC2 that can be used in the assay are provided in FIG. 1 (SEQ ID NO. 1) and FIG. 2 (SEQ. ID NO. 2), respectively.
[3] Preparation of rhACC2. Human ACC2 inhibition was measured using purified recombinant human ACC2 (hrACC2). Briefly, a full length Cytomax clone of ACC2 was purchased from Cambridge Bioscience Limited and was sequenced and subcloned into PCDNA5 FRT TO-TOPO (Invitrogen, Carlsbad, Calif.). The ACC2 was expressed in CHO cells by tetracycline induction and harvested in 5 liters of DMEM/F12 with glutamine, biotin, hygromycin and blasticidin with 1 μg/mL tetracycline (Invitrogen, Carlsbad, Calif.). The conditioned medium containing ACC2 was then applied to a Softlink Soft Release Avidin column (Promega, Madison, Wis.) and eluted with 5 mM biotin. 4 mgs of ACC2 were eluted at a concentration of 0.05 mg/mL (determined by A280) with an estimated purity of 95% ([…]). The purified ACC2 was dialyzed in 50 mM Tris, 200 mM NaCl, 4 mM DTT, 2 mM EDTA, and 5% glycerol. The pooled protein was frozen and stored at −80° C., with no loss of activity upon thawing. For measurement of ACC2 activity and assessment of ACC2 inhibition, test compounds were dissolved in DMSO and added to the rhACC2 enzyme as a 5× stock with a final DMSO concentration of 1%.
[4] Measurement of human ACC2 inhibition. hACC2 was assayed in a Costar #3676 (Costar, Cambridge, Mass.) 384-well plate using the Transcreener ADP detection FP assay kit (Bellbrook Labs, Madison, Wis.) using the manufacturer's recommended conditions for a 50 uM ATP reaction. The final conditions for the assay were 50 mM HEPES, pH 7.2, 5 mM MgCl2, 5 mM tripotassium citrate, 2 mM DTT, 0.1 mg/mL BSA, 30 μM acetyl-CoA, 50 μM ATP, and 8 mM KHCO3. Typically, a 10 μl reaction was run for 50 min at 25° C., and 10 μl of Transcreener stop and detect buffer was added and the combination incubated at room temp for an additional 1 hour. The data was acquired on an Envision Fluorescence reader (Perkinelmer) using a 620 excitation Cy5 FP general dual mirror, 620 excitation Cy5 FP filter, 688 emission (S) and a 688 (P) emission filter.
The results using the recombinant hACC1 and recombinant hACC2 Transcreener assays described above are summarized in the table below for the Compounds of Formula (I) exemplified in the Examples above. All of the examples in both assays were run with a minimum of n=3.

T2 sequence (O00763 whole entry V2141I): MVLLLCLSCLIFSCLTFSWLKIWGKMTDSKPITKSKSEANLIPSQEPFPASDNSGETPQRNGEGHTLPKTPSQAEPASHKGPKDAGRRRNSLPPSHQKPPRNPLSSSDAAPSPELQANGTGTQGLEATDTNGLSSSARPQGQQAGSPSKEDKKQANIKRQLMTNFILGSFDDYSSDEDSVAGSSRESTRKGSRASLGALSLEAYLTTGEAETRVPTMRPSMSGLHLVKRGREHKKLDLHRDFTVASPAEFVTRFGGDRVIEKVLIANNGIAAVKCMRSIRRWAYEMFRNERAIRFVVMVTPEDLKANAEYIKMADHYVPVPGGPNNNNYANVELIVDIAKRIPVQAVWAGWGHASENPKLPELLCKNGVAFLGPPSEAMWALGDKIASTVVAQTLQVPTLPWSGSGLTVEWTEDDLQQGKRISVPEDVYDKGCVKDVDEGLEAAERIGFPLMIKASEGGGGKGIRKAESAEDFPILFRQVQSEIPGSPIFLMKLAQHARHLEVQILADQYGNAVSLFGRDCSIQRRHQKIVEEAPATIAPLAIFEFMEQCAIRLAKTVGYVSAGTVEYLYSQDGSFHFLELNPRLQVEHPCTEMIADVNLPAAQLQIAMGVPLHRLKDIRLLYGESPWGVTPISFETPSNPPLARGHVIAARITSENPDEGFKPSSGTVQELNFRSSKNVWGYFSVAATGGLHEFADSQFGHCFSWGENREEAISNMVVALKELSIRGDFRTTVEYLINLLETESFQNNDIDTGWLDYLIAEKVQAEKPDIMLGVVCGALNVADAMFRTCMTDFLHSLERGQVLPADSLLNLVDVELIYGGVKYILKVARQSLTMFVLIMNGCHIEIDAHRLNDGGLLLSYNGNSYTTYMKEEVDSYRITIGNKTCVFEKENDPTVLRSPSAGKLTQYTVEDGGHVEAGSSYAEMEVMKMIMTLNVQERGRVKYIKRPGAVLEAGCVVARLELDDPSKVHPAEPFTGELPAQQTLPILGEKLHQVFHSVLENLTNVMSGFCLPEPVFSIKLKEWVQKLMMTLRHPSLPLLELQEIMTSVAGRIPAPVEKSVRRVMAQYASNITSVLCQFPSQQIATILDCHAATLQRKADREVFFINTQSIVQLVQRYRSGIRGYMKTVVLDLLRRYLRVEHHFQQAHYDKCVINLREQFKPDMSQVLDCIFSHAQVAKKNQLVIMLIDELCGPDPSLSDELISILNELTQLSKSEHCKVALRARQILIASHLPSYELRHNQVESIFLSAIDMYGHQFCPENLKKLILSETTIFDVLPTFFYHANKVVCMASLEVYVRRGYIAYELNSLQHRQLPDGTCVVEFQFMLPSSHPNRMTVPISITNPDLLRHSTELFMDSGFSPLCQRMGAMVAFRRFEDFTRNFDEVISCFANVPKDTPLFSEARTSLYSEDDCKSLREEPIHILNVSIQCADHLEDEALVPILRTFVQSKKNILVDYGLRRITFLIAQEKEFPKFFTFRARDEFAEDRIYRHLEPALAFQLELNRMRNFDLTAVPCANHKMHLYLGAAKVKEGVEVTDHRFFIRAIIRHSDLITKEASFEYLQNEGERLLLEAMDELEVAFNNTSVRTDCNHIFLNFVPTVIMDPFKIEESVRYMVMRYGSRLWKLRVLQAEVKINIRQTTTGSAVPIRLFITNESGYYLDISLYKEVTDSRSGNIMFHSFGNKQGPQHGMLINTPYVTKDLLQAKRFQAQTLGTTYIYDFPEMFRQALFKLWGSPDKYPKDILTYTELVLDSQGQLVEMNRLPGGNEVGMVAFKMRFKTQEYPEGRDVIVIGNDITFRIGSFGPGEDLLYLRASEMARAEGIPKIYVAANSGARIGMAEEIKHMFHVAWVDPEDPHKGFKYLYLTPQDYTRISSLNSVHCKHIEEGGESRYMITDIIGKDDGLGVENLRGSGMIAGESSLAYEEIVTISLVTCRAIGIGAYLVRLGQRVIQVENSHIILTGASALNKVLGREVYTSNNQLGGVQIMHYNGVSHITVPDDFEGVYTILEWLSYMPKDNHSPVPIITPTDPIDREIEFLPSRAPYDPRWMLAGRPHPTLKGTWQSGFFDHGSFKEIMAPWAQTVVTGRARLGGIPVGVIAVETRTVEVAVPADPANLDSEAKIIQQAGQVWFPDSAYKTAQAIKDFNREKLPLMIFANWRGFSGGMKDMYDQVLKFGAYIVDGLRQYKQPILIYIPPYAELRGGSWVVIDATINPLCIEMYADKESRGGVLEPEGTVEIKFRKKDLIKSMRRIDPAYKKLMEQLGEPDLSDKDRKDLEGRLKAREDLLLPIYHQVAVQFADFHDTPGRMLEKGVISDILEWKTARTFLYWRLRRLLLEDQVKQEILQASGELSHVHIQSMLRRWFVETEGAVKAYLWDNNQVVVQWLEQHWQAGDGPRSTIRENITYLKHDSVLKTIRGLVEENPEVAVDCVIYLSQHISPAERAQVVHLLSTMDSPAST

IC50 [1] [nM]	IC50 [2] [nM]	Molecule
113	74.2	CC(C)n1ncc2c1C(=O)CC1(CCN(C(=O)c3ccc(-c4cccc(C(=O)O)c4)cc3)CC1)C2 [Example 7, 4′-[(1-isopropyl-7-oxo-1,4,6,7-tetrahydro-1′H-spiro[indazole-5,4′-piperidin]-1′-yl)carbonyl]biphenyl-3-carboxylic acid]
260	115	CC(C)(C)n1ncc2c1C(=O)CC1(CCN(C(=O)c3ccc(-c4cccc(C(=O)O)c4)cc3)CC1)C2 [Example 6, 4′-[(1-tert-butyl-7-oxo-1,4,6,7-tetrahydro-1′H-spiro[indazole-5,4′-piperidin]-1′-yl)carbonyl]biphenyl-3-carboxylicacid]
23.1	54.8	COc1ccc(-c2cccc3[nH]c(C(=O)N4CCC5(CC4)CC(=O)c4c(cnn4C(C)C)C5)cc23)cc1CC(=O)O [Example 31, (5-{2-[(1-isopropyl-7-oxo-1,4,6,7-tetrahydro-1′H-spiro[indazole-5,4′-piperidin]-1′-yl)carbonyl]-1H-indol-4-yl}-2-methoxyphenyl)acetic acid]
34.4	35.9	CNc1ncc(-c2ccc(C(=O)O)cc2)cc1C(=O)N1CCC2(CC1)CC(=O)c1c(cnn1C(C)C)C2 [Example 44, 4-{5-[(1-isopropyl-7-oxo-1,4,6,7-tetrahydro-1′H-spiro[indazole-5,4′-piperidin]-1′-yl)carbonyl]-6-(methylamino)pyridin-3-yl}benzoic acid]
5400	2260	CC(C)n1ncc2c1C(=O)CC1(CCN(C(=O)c3cc(-c4cccc(C(=O)O)c4)[nH]c(=O)c3)CC1)C2 [Example 3, 3-(4-(1-isopropyl-7-oxo-1,4,6,7-tetrahydrospiro[indazole-5,4′-piperidine]-1′-ylcarbonyl)-6-oxo-1,6-dihydropyridin-2-yl)benzoic acid]
156	175	CNc1nc(-c2ccc(C(=O)O)cc2)ccc1C(=O)N1CCC2(CC1)CC(=O)c1c(cnn1C(C)C)C2 [Example 8, 4-{5-[(1-isopropyl-7-oxo-1,4,6,7-tetrahydro-1′H-spiro[indazole-5,4′-piperidin]-1′-yl)carbonyl]-6-(methylamino)pyridin-2-yl}benzoic acid]
54.7	24.7	CC(C)(C)n1ncc2c1C(=O)CC1(CCN(C(=O)c3ccc(-c4cccc(-c5nnn[nH]5)c4)cc3)CC1)C2 [Example 49, 1-tert-butyl-1′-{[3′-(1H-tetrazol-5-yl)biphenyl-4-yl]carbonyl}-1,4-dihydrospiro[indazole-5,4′-piperidin]-7(6H)-one]
13.7	6.16	CC(C)n1ncc2c1C(=O)CC1(CCN(C(=O)c3cc4c(-c5ccc(C(=O)O)cc5)ccnc4[nH]3)CC1)C2 [Example 29, 4-{2-[(1-isopropyl-7-oxo-1,4,6,7-tetrahydro-1′H-spiro[indazole-5,4′-piperidin]-1′-yl)carbonyl]-1H-pyrrolo[2,3-b]pyridin-4-yl}benzoic acid]
59.5	28	CC(C)n1ncc2c1C(=O)CC1(CCN(C(=O)c3ccc(-c4cccc(-c5nnn[nH]5)c4)cc3)CC1)C2 [Example 48, 1-isopropyl-1′-{[3′-(1H-tetrazol-5-yl)biphenyl-4-yl]carbonyl}-1,4-dihydrospiro[indazole-5,4′-piperidin]-7(6H)-one]
627	507	CC(C)(C)n1ncc2c1C(=O)CC1(CCN(C(=O)c3cc(C(=O)O)cc(-c4ncco4)c3)CC1)C2 [Example 21, 3-[(1-tert-butyl-7-oxo-1,4,6,7-tetrahydro-1′H-spiro[indazole-5,4′-piperidin]-1′-yl)carbonyl]-5-(1,3-oxazol-2-yl)benzoic acid]
16.3	8.7	CC(C)n1ncc2c1C(=O)CC1(CCN(C(=O)c3cc(-c4ccc(C(=O)O)cc4)nc(N(C)C)c3)CC1)C2 [Example 33, 4-{6-(dimethylamino)-4-[(1-isopropyl-7-oxo-1,4,6,7-tetrahydro-1′H-spiro[indazole-5,4′-piperidin]-1′-yl)carbonyl]pyridin-2-yl}benzoic acid]
837	487	CCNc1nc(-c2cccc(C(=O)O)c2)ccc1C(=O)N1CCC2(CC1)CC(=O)c1c(cnn1C(C)(C)C)C2 [Example 19, 3-{5-[(1-tert-butyl-7-oxo-1,4,6,7-tetrahydro-1′H-spiro[indazole-5,4′-piperidin]-1′-yl)carbonyl]-6-(ethylamino)pyridin-2-yl}benzoic acid]
15.6	21.6	CC(C)(C)n1ncc2c1C(=O)CC1(CCN(C(=O)c3cc4c(-c5cccc(C(=O)O)c5)cccc4[nH]3)CC1)C2 [Example 17, 3-{2-[(1-tert-butyl-7-oxo-1,4,6,7-tetrahydro-1′H-spiro[indazole-5,4′-piperidin]-1′-yl)carbonyl]-1H-indol-4-yl}benzoic acid]
20.4	7.49	CC(C)n1ncc2c1C(=O)CC1(CCN(C(=O)c3cc(-c4ccc(C(=O)O)cc4)c4cn[nH]c4c3)CC1)C2 [Example 26, 4-{6-[(1-isopropyl-7-oxo-1,4,6,7-tetrahydro-1′H-spiro[indazole-5,4′-piperidin]-1′-yl)carbonyl]-1H-indazol-4-yl}benzoic acid]
176	184	CC(C)(C)n1ncc2c1C(=O)CC1(CCN(C(=O)c3ccc(OCc4ccc(C(=O)O)cc4)cc3)CC1)C2 [Example 1, 4-((4-(1-Tert-butyl-7-oxo-1,4,6,7-tetrahydrospiro[indazole-5,4′-piperidine]-1′-ylcarbonyl)phenoxy)methyl)benzoic acid]
116	53	CNc1nc(-c2cccc(C(=O)O)c2)ccc1C(=O)N1CCC2(CC1)CC(=O)c1c(cnn1C(C)(C)C)C2 [Example 4, 3-{5-[(1-tert-butyl-7-oxo-1,4,6,7-tetrahydro-1′H-spiro[indazole-5,4′-piperidin]-1′-yl)carbonyl]-6-(methylamino)pyridin-2-yl}benzoic acid]

Molecule	IC50 [1] [nM]	IC50 [2] [nM]
3-{5-[(1-isopropyl-7-oxo-1,4,6,7-tetrahydro-1′H-spiro[indazole-5,4′-piperidin]-1′-yl)carbonyl]-6-(methylamino)pyridin-2-yl}benzoic acid [Example 5]	163	114
